Data on 5 molecules can be found in PMC10510756 (Chemical Science, 2023).

Assay [1] deals with Cy5-SAM-VI RS (RNA, riboswitch) GGCAUUGUGCCUCGCAUUGCACUCCGCGGGGCGAUAAGUCCUGAAAAGGGAUGUC
The assay is described as follows: MST, 5'-Cy5-labelled RNA. The note with it: 100 mM KCl, 25 mM MgCl2; 50 mM Tris-HCl pH 7.5, 25 °C, 20 nM RNA.

The subject of assay [2] is SAM-I RS (RNA, riboswitch) GGCUUAUCAAGAGAGGGGGAGCGACUGGCGCGAAGAACCCCGGCAACCAGAAAUGGUGCCAAUUCCUGCAGCGGAAACGUUGAAAGAUGAGCCG
Briefly: MST, SybrGold (1x) non-covalent dye. To be noted: 100 mM KCl, 25 mM MgCl2; 50 mM Tris-HCl pH 7.5, 25 °C, 100 nM RNA.

Assay [3] deals with SAM-VI RS (RNA, riboswitch) GGCAUUGUGCCUCGCAUUGCACUCCGCGGGGCGAUAAGUCCUGAAAAGGGAUGUC
The assay is described as follows: MST, SybrGold (1x) non-covalent dye. To be noted: 100 mM KCl, 25 mM MgCl2; 50 mM Tris-HCl pH 7.5, 25 °C, 100 nM RNA.

For assay [4], the target named is METTL3/14 (Homo sapiens, UniProt Q86U44).
In assay [5] the test system is Neomycin aptamer (RNA, aptamer) GGCUGCUUGUCCUUUAAUGGUCCAGUC
Briefly: MST, Syto 59 (1x) non-covalent dye. The note with it: 100 mM KCl, 25 mM MgCl2; 50 mM Tris-HCl pH 7.5, 25 °C, 100 nM RNA; apparent; below tight-binding limit.

The test system of assay [6] is PreQ1 RS (RNA, riboswitch) GGAGAGGUUCUAGCUACACCUCUAUAAAAAACUAA
Briefly: MST, SybrGold (1x) non-covalent dye. The note with it: 100 mM KCl, 25 mM MgCl2; 50 mM Tris-HCl pH 7.5, 25 °C, 100 nM RNA; apparent; near tight-binding limit.

Broadly, the KD is the free concentration of one partner at which half of the binding sites on the other are occupied at equilibrium, for simple one-to-one binding. By Km is commonly meant the substrate concentration at which the rate is half of its maximum.

Sequence of METTL3/14 (Q86U44 2-580): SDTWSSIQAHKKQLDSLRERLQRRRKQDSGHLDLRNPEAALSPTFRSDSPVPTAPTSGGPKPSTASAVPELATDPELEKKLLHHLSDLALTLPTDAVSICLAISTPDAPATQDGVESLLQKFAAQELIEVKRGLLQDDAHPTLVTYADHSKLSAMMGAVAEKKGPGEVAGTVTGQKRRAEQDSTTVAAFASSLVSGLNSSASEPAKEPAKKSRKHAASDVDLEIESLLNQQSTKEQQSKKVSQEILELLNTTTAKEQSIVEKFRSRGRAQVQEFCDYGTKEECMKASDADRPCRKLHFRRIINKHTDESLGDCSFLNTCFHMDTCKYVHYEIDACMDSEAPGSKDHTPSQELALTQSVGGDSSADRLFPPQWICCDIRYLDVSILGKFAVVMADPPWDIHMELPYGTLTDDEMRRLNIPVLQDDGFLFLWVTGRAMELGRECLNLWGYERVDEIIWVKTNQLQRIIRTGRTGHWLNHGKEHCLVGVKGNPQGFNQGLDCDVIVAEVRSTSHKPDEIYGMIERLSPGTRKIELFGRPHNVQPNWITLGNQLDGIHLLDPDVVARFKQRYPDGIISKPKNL
Sequence of METTL3/14 (Q9HCE5 whole entry partner): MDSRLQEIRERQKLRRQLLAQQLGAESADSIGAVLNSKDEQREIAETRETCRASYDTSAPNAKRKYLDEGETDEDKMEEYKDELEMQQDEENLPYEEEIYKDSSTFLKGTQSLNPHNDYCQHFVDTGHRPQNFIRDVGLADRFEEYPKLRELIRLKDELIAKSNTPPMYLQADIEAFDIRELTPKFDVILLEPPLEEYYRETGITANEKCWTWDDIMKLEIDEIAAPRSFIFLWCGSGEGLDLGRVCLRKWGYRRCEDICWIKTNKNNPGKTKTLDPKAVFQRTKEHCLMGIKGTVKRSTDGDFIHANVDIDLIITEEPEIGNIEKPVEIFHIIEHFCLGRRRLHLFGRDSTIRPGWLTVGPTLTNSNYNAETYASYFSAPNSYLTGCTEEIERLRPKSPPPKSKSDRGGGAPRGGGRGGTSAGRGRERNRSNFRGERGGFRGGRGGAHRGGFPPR

`Nc1ncnc2c1ncn2[C@@H]1O[C@H](CSCC[C@H](N)C(=O)O)[C@@H](O)[C@H]1O`: the KD in assay [1] was 23.6 ± 7.0 µM; in assay [2] it was 137 µM; in assay [3], 10 µM.
For `C[S+](CC[C@H](N)C(=O)O)C[C@H]1O[C@@H](n2cnc3c(N)ncnc32)[C@H](O)[C@@H]1O` (stereo partly drawn) the same measures were 0.699 ± 0.185 µM, 0.157 µM and 0.953 µM.
`C[S+](CC[C@H](N)C(=O)[O-])C[C@H]1O[C@@H](n2cnc3c(N)ncnc32)[C@H](O)[C@@H]1O` (stereo partly drawn) [S-adenosylmethionine]: the Km in assay [4] stood at 0.226 µM.
Regarding `NC[C@@H]1O[C@H](O[C@H]2[C@@H](O)[C@H](O[C@@H]3[C@@H](O)[C@H](N)C[C@H](N)[C@H]3O[C@H]3O[C@H](CN)[C@@H](O)[C@H](O)[C@H]3N)O[C@@H]2CO)[C@H](N)[C@@H](O)[C@@H]1O`, the “KD,app” value in assay [5] is 0.0296 µM.
Take `NCc1c[nH]c2nc(N)[nH]c(=O)c12`: in assay [6], the “KD,app” value turned out to be 0.0448 µM.
